According to patent publication US7109296B2, “Human 5-HT3-C protein” (Ortho-McNeil Pharmaceutical, Inc., priority 1999, dated 2006):

Target: T1, long form of human 5-HT3-A together with 5-HT3-C (Homo sapiens, UniProt P46098+Q8WXA8)
T1 construct: Characterization of the Function of Protein Encoded by p5HT3CR in Xenopus oocvtes; expressed in transfected cells; host or cells: Xenopus laevis oocytes co-injected with cRNAs
T1 sequence (P46098 24-510 isoform P46098-2): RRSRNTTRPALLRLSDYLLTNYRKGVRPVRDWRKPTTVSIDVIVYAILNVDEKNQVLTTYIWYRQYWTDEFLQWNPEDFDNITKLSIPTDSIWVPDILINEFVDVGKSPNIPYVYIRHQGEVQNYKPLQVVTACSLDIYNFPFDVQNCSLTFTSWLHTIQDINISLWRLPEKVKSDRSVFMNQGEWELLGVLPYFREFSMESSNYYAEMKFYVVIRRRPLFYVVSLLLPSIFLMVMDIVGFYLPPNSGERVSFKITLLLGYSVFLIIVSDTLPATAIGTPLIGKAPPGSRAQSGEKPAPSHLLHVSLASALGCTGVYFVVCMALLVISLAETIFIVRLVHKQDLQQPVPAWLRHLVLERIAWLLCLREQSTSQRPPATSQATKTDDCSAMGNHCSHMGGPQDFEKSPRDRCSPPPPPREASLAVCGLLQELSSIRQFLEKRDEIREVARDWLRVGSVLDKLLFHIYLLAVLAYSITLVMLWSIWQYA
T1 sequence (Q8WXA8 28-447): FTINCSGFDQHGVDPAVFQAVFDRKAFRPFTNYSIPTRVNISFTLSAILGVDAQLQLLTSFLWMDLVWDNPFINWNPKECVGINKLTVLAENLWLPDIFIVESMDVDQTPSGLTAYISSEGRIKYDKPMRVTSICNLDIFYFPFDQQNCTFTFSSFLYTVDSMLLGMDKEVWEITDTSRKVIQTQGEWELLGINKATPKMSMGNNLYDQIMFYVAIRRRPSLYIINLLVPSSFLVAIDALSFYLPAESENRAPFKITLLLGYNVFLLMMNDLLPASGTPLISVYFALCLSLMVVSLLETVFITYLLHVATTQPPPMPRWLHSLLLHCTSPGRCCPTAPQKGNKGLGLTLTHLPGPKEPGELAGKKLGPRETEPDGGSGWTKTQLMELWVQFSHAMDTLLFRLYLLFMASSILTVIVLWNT
Assay: Two-electrode voltage clamp, oocytes co-injected with long form of human 5-HT3-A and 5-HT3-C
Format: cell-based
Conditions: 10 μM; n=2
Experimental: Characterization of the Function of Protein Encoded by p5HT3CR in Xenopus oocvtes Xenopus laevis oocytes were prepared and injected using standard methods previously described and known in the art (Fraser et al., 1993). Ovarian lobes from adult female Xenopus laevis (Nasco, Fort Atkinson, Wis.) were teased apart, rinsed several times in nominally Ca-free saline containing (in mM): NaCl 82.5, KCl 2.5, MgCl2 1, HEPES 5, adjusted to pH 7.0 with NaOH(OR-2), and gently shaken in OR-2 containing 0.2% collagenase Type 1 (ICN Biomedicals, Aurora, Ohio) for 2–5 hours. When approximately 50% of the follicular layers were removed, Stage V and VI oocytes were selected and rinsed in media consisting of 75% OR-2 and 25% ND-96. The ND-96 contained (in mM): NaCl 100, KCl 2, MgCl2 1, CaCl2 1.8, HEPES 5, Na pyruvate 2.5, gentamicin (50 ug/ml), adjusted to pH 7.0 with NaOH. […] Whole cell agonist-induced currents were measured 1–14 days after injection with a conventional two-electrode voltage clamp (GeneClamp500, Axon Instruments, Foster City, Calif.) using standard methods previously described and known in the art (Dascal, 1987). […]

sensitivity of oocytes to agonist: insensitive
Structure (SMILES): NCCc1c[nH]c2ccc(O)cc12 [5-HT, 5-hydroxytryptamine]
